Values quoted from earlier work, collected in patent US4745233A, “Derivatives of 1,1,2,2-tetramethyl-1,2-bis-(2-fluoro-4-hydroxyphenyl)-ethane” (Asta-Werke Aktiengesellschaft, priority 1985, dated 1988).

Assays:
oestrogen receptor = target: T1, oestrogen receptor (Bos taurus, UniProt P49884); details: known compound, literature
T1 sequence (P49884 1-596): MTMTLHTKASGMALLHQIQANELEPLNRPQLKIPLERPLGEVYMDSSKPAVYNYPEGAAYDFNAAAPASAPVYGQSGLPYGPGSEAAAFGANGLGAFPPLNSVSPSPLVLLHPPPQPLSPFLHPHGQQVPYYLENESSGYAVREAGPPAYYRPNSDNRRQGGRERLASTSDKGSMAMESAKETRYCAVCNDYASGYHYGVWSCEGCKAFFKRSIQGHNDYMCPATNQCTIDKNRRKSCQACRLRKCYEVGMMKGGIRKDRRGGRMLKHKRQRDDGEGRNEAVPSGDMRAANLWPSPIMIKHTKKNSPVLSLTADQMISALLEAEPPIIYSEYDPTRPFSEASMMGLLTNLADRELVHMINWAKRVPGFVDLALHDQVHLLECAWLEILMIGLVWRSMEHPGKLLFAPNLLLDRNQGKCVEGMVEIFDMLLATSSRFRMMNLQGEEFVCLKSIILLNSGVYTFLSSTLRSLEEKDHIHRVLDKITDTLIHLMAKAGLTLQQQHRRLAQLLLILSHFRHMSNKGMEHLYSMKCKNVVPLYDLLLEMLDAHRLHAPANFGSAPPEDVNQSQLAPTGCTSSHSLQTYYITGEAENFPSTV

[1] = tested on: DMBA-induced mammary carcinomas; details: Sprague Dawley rats; known compound
[2] = tested on: oestrone- or oestradiol-stimulated uterus growth; details: juvenile mice; known compound

SMILES: CC(C)(c1ccc(O)cc1)C(C)(C)c1ccc(O)cc1 [1,1,2,2-tetramethyl-1,2-bis-(4-hydroxyphenyl)-ethane]
- relative binding affinity (oestrogen receptor): 3.6
- growth of DMBA-induced mammary carcinoma [1]: inhibits the growth
- antioestrogen effect: inhibition of oestrone- or oestradiol-stimulated uterus growth [2]: strong effect as antioestrogen
